Target: T1, glucokinase (GK) (Homo sapiens, UniProt P35557)
T1 construct: I.D. No. 1 corresponds to residues 12-465 of glucokinase; made in house; host or cells: E. coli DH10b-T1r
T1 sequence (P35557 with tags, fused parts or gaps isoform P35557-2): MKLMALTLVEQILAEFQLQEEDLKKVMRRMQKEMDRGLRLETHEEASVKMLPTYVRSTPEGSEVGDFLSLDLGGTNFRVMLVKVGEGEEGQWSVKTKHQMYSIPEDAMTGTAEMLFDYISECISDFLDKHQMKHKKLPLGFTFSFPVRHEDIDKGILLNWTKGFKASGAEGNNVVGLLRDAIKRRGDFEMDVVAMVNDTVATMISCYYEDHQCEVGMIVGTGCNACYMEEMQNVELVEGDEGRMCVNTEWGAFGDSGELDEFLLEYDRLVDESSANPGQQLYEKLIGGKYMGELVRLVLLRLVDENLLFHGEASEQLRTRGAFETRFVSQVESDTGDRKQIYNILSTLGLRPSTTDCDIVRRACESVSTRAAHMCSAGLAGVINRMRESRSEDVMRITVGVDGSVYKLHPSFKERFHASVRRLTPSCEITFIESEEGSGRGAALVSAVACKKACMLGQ
Experiment: enzymatic glucokinase activity assay (ATP consumption, KinaseGlo luminescence)
Type: biochemical
Settings: recombinant GK residues 12-465; 5 μM ATP, 5 mM Glucose; Kact = concentration that displays 50% of the maximal increase in GK activity; read-out: pKact
Description: The activity of compounds as glucokinase activators may be assayed in vitro, in vivo or in a cell line. Provided below is an enzymatic glucokinase activity assay.
Purified glucokinase may be obtained as follows. […] SEQ.
The expression of recombinant glucokinase protein may be carried out by transformation and growth of DH10b-T1r E. coli cells incorporating the (pFLAG-CTC) plasmid in LB media. Protein expression can be induced in this system by the addition of IPTG to the culture medium.
Recombinant protein may be isolated from cellular extracts by passage over Sepharose Q Fast Flow resin (Pharmacia). This partially purified GK extract may then be further purified by a second passage over Poros HQ 10 (Applied Biosystems). The purity of GK may be determined on denaturing SDS-PAGE gel. Purified GK may then be concentrated to a final concentration of 20.0 mg/ml. After flash freezing in liquid nitrogen, the proteins can be stored at −78° C. in a buffer containing 25 mM TRIS-HCl pH 7.6, 50 mM NaCl, and 0.5 mM TCEP.
The activation properties of compounds for GK may be determined using a black 384-well-plate format under the following reaction conditions: 25 mM Hepes pH 7.2, 25 mM NaCl, 10 mM MgCl2, 0.01% Brij35, 1 mM DTT, 5 μM ATP, 5 mM Glucose 2% DMSO. The amount of ATP consumed may be determined quantitatively by addition of equal volume of luciferase reagent (luciferase+beetle luciferin—KinaseGlo Luminescent Kinase Assay kit from Promega). The luminescence intensity may be measured by using the Analyst HT from LJL Biosystems.
The reaction mixture may then be incubated at room temperature for 60 min, and quenched and developed by addition of 10 μL of luciferase reagent. Luminescence intensities of the resulting reaction mixtures may be measured after a 10 min incubation at room temperature. The luminescence intensity may be measured by using the Analyst HT from LJL Biosystems.
pKact values may be calculated by non-linear curve fitting of the compound concentrations and luminescence intensities to a standard inhibition/activation equation.

EC50 [µM] | Structure (SMILES)
< 1.58 | Cc1cc(S(=O)(=O)C2CC2)cc(=O)n1[C@@H](CC1CCCC1)C(=O)Nc1ncc(Cl)s1 [Example 183, (S)-N-(5-chlorothiazol-2-yl)-3-cyclopentyl-2-(4-(cyclopropylsulfonyl)-6-methyl-2-oxopyridin-1(2H)-yl)propanamide]
1.58 to 15.8 | COc1cccc(-c2cc(C)n([C@@H](CC3CCCCC3)C(=O)Nc3nccs3)c(=O)c2)c1 [Example 95, (S)-3-cyclohexyl-2-(4-(3-methoxyphenyl)-6-methyl-2-oxopyridin-1(2H)-yl)-N-(thiazol-2-yl)propanamide]
> 15.8 | O=C(Nc1ncc(F)s1)[C@@H](CC1CCOCC1)n1cc(Cl)c(S(=O)(=O)C2CC2)cc1=O [Example 197, (R)-2-(5-chloro-4-(cyclopropylsulfonyl)-2-oxopyridin-1(2H)-yl)-N-(5-fluorothiazol-2-yl)-3-(tetrahydro-2H-pyran-4-yl)propanamide]
< 1.58 | Cc1cc(S(=O)(=O)c2cccc(Cl)c2)cc(=O)n1[C@@H](CC1CCOCC1)C(=O)Nc1ncc(F)s1 [Example 168, (S)2-(4-(3-chlorophenylsulfonyl)-6-methyl-2-oxopyridin-1(2H)-yl)-N-(5-fluorothiazol-2-yl)-3-(tetrahydro-2H-pyran-4-yl)propanamide]
1.58 to 15.8 | O=C(Nc1ncc(Cc2ccc(F)cc2)s1)C(CC1CCOCC1)n1ccc(S(=O)(=O)C2CC2)cc1=O (stereo not drawn) [Example 138, 2-(4-(cyclopropylsulfonyl)-2-oxopyridin-1(2H)-yl)-N-(5-(4-fluorobenzyl)thiazol-2-yl)-3-(tetrahydro-2H-pyran-4-yl)propanamide]
< 1.58 | Cc1cc(S(=O)(=O)C2CCCC2)cc(=O)n1C(CC1CCCCC1)C(=O)Nc1ncc(CN2CCOCC2)s1 (stereo not drawn) [Example 89, 3-cyclohexyl-2-(4-(cyclopentylsulfonyl)-6-methyl-2-oxopyridin-1(2H)-yl)-N-(5-(morpholinomethyl)thiazol-2-yl)propanamide]
1.58 to 15.8 | Cc1occc1S(=O)(=O)c1cc(C)n([C@@H](CC2CCOCC2)C(=O)Nc2ncc(Cl)s2)c(=O)c1 [Example 64, (S)-N-(5-chlorothiazol-2-yl)-2-(6-methyl-4-(2-methylfuran-3-ylsulfonyl)-2-oxopyridin-1(2H)-yl)-3-(tetrahydro-2H-pyran-4-yl)propanamide]
1.58 to 15.8 | Cc1cc(S(=O)(=O)C2CCCC2)cc(=O)n1C(CC1CC1)C(=O)Nc1nccs1 (stereo not drawn) [Example 12, 2-(4-(cyclopentylsulfonyl)-6-methyl-2-oxopyridin-1(2H)-yl)-3-cyclopropyl-N-(thiazol-2-yl)propanamide]
> 15.8 | Cc1cc(-c2ccc(Cl)cc2)cc(=O)n1[C@@H](CC1CCCCC1)C(=O)Nc1nccs1 [Example 93, (S)-2-(4-(4-chlorophenyl)-6-methyl-2-oxopyridin-1(2H)-yl)-3-cyclohexyl-N-(thiazol-2-yl)propanamide]
1.58 to 15.8 | Cc1cc(S(=O)(=O)Cc2ccco2)cc(=O)n1C(CC1CCOCC1)C(=O)Nc1ncc(Cc2ccc(F)cc2)s1 (stereo not drawn) [Example 144, N-(5-(4-fluorobenzyl)thiazol-2-yl)-2-(4-(furan-2-ylmethylsulfonyl)-6-methyl-2-oxopyridin-1(2H)-yl)-3-(tetrahydro-2H-pyran-4-yl)propanamide]
< 1.58 | Cc1cc(S(=O)(=O)C2CCCC2)cc(=O)n1C(CC1CCCC1)C(=O)Nc1nccs1 (stereo not drawn) [Example 14, 3-cyclopentyl-2-(4-(cyclopentylsulfonyl)-6-methyl-2-oxopyridin-1(2H)-yl)-N-(thiazol-2-yl)propanamide]
1.58 to 15.8 | COc1ccc2nc(NC(=O)[C@@H](CC3CCCCC3)n3c(C)cc(S(=O)(=O)C4CC4)cc3=O)sc2n1 [Example 122, (R)-3-cyclohexyl-2-(4-(cyclopropylsulfonyl)-6-methyl-2-oxopyridin-1(2H)-yl)-N-(5-methoxythiazolo[5,4-b]pyridin-2-yl)propanamide]

Source: patent US8163779B2, “Glucokinase activators” (Takeda San Diego, Inc., priority 2006, dated 2012)
